For 16 molecules, IC50 results are on record in patent US7211597B2, “Substituted pyrazolyl compounds for the treatment of inflammation” (priority 2001, dated 2007).

The target in the first experiment is T1, IKK2 (IKKβ) (Homo sapiens, UniProt O14920).
T1 construct: made in house; host or cells: baculovirus-infected insect cells (SF9)
T1 sequence (O14920 1-756): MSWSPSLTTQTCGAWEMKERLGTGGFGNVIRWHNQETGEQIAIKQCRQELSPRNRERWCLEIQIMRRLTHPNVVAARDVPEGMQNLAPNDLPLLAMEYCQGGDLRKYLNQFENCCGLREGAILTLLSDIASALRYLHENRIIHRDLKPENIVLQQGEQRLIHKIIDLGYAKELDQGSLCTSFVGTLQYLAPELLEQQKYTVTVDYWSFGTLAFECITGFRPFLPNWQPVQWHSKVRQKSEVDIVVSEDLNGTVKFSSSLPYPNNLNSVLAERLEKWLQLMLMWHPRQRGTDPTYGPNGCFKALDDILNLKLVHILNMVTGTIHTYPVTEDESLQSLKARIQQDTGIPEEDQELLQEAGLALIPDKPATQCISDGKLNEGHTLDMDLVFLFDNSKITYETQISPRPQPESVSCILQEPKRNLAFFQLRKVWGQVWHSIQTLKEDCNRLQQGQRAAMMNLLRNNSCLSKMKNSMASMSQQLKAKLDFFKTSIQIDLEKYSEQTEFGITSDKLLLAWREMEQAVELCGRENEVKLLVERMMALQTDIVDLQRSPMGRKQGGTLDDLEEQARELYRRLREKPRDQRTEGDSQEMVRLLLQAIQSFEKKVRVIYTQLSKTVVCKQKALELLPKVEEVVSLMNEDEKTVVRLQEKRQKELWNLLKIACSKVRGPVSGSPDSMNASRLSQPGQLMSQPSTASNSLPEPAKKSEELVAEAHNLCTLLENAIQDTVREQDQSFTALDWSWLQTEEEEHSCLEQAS
Nature of the experiment: IKK2 (IKKβ) resin enzyme assay. The format is biochemical. Particulars: Table 2; read-out: IKK2 Resin Avg. IC50. From the text:
cDNAs of human IKK1 and IKK2 were amplified by reverse transcriptase-polymerase chain reaction from human placental RNA (Clonetech). hIKK1 was subcloned into pFastBac HTa (Life Technologies) and expressed as N-terminal His6-tagged fusion protein. The hIKK2 cDNA was amplified using a reverse oligonucleotide primer which incorporated the peptide sequence for a FLAG-epitope tag at the C-terminus of the IKK2 coding region (DYKDDDDKD). The hIKK2:FLAG cDNA was subcloned into the baculovirus vector pFastBac. The rhIKK2 ([…]) mutant was constructed in the same vector used for wild type rhIKK2 using a QuikChange™ mutagenesis kit (Stratagene). Viral stocks of each construct were used to infect insect cells grown in 40L suspension culture. […] Cell lysates were stored at −80° C. until purification of the recombinant proteins was undertaken as described below.
Isolation of rhIKK2 Homodimer
A 10 liter culture of baculovirus-expressing IKK2 tagged with FLAG peptide was centrifuged and the cell pellet (MOI=0.1 and I=72 hrs) was re-suspended in buffer A. These cells were microfluidized, and centrifuged at 100,000×g for 45 min. Supernatant was passed over a G-25 column equilibrated with Buffer A. Protein peak was collected and incubated with anti-FLAG affinity resin on a rotator overnight in buffer B. The resin was washed in batch with 10-15 bed volumes of buffer C. Washed resin was poured into a column and rhIKK2 homodimer was eluted using 5 bed volumes of buffer B containing FLAG peptide. 5 mM DTT, 0.1% NP-40 and BSA (concentrated to 0.1% in final amount) was added to the eluted enzyme before concentrating in using an Amicon membrane with a molecular weight cut-off of 30 kDa. Enzyme was aliquoted and stored at −80° C.
IKKβ kinase activity was measured using a biotinylated IκBα peptide (Gly-Leu-Lys-Lys-Glu-Arg-Leu-Leu-Asp-Asp-Arg-His-Asp-Ser32-Gly-Leu-Asp-Ser36-Met-Lys-Asp-Glu-Glu) (American Peptide Co.). […] contained 5 μM biotinylated IκBα peptide, 0.1 μCi/reaction [γ-^33P] ATP (Amersham) (about 1×10^5 cpm), 1 μM ATP (Sigma), 1 mM DTT (Sigma), 2 mM MgCl2 (Sigma), 2 mM MnCl2 (Sigma), 10 mM NaF (Sigma), 25 mM Hepes (Sigma) buffer, pH 7.6 and 20 μl enzyme solution and […] inhibitor in a final volume of 50 μl. After incubation at 25° C. for 30 min, 150 μl resin (Dowex anion-exchange resin AG1X8 200-400 mesh) in 900 mM formate, pH 3.0 was added to each well to stop the reaction. Resin was allowed to settle for one hour and 50 ul of supernatant was removed to a Micolite-2 flat bottom plate (Dynex). 150 μl of scintillation fluid (Microscint 40) (Packard) was added to each well. Incorporation of [γ-^33P] ATP was measured using a Top-Count NXT (Packard).
As a reminder, the IC50 is the concentration that inhibits the measured activity by half. Consider `CC(=O)N1Cc2c(C(N)=O)nn(-c3ccc4c(c3)OCO4)c2-c2cc(N)ccc21` [Example 17, 5-acetyl-8-amino-1-(1,3-benzodioxol-5-yl)-4,5-dihydro-1H-pyrazolo[4,3-c]quinoline-3-carboxamide acetate], for which the IC50 is not above 1 µM.

As to `CC(=O)N1Cc2c(C(N)=O)nn(-c3ccc4c(c3)OCO4)c2-c2cc(NC(=O)c3ccccc3Cl)ccc21` [Example 18, 5-acetyl-1-(1,3-benzodioxol-5-yl)-8-[(2-chlorobenzoyl)amino]-4,5-dihydro-1H-pyrazolo[4,3-c]quinoline-3-carboxamide], the IC50 is not above 1 µM.

With `CC(=O)N1Cc2c(C(N)=O)nn(-c3ccc4c(c3)OCO4)c2-c2cc(NC(=O)c3ccncc3Cl)ccc21` [Example 22, 5-acetyl-1-(1,3-benzodioxol-5-yl)-8-[(3-chloroisonicotinoyl)amino]-4,5-dihydro-1H-pyrazolo[4,3-c]quinoline-3-carboxamide], the IC50 was less than 1 µM.

As to `CC(=O)N1Cc2c(C(N)=O)nn(-c3ccc4c(c3)OCO4)c2-c2cc(NS(C)(=O)=O)ccc21` [Example 23, 5-acetyl-1-(1,3-benzodioxol-5-yl)-8-[(methylsulfonyl)amino]-4,5-dihydro-1H-pyrazolo[4,3-c]quinoline-3-carboxamide], the concentration for half-maximal inhibition (IC50) is less than 1 µM.

Take `CC(=O)N1Cc2c(C(N)=O)nn(-c3ccc(F)cc3)c2-c2cc(NS(C)(=O)=O)ccc21` [Example 25, 5-acetyl-1-(4-fluorophenyl)-8-[(methylsulfonyl)amino]-4,5-dihydro-1H-pyrazolo[4,3-c]quinoline-3-carboxamide]: the IC50 was less than 1 µM.

Still in this experiment, the particulars now being: Table 3; read-out: IKK2 Resin IC50.
Take `NC(=O)c1nn(-c2ccc3c(c2)OCO3)c2c1COc1ccc(NC(=O)c3cc4c(cc3Cl)OCO4)cc1-2` [Example 31, 1-(1,3-benzodioxol-5-yl)-8-{[(6-chloro-1,3-benzodioxol-5-yl)carbonyl]amino}-1,4-dihydrochromeno[4,3-c]pyrazole-3-carboxamide]: the IC50 was not above 1 µM.

Turning to `NC(=O)c1nn(-c2ccc3c(c2)OCO3)c2c1COc1ccc(NC(=O)c3ccncc3Cl)cc1-2` [Example 32, 1-(1,3-benzodioxol-5-yl)-8-[(3-chloroisonicotinoyl)amino]-1,4-dihydrochromeno[4,3-c]pyrazole-3-carboxamide], the IC50 was not above 1 µM.

For `NC(=O)c1nn(-c2ccc3c(c2)OCO3)c2c1COc1ccc(NC(=O)c3cc(N)ccc3Cl)cc1-2` [Example 33, 8-[(5-amino-2-chlorobenzoyl)amino]-1-(1,3-benzodioxol-5-yl)-1,4-dihydrochromeno[4,3-c]pyrazole-3-carboxamide], the IC50 is not above 1 µM.

For `NC(=O)c1nn(-c2ccc3c(c2)OCO3)c2c1COc1ccc(NC(=O)c3ccccc3Cl)cc1-2` [Example 34, 1-(1,3-benzodioxol-5-yl)-8-[(2-chlorobenzoyl)amino]-1,4-dihydrochromeno[4,3-c]pyrazole-3-carboxamide], the IC50 is not above 1 µM.

With `NC(=O)c1nn(-c2ccc3c(c2)OCO3)c2c1COc1ccc(NC(=O)c3cccc(Cl)c3Cl)cc1-2` [Example 45, 1-(1,3-benzodioxol-5-yl)-8-[(2,3-dichlorobenzoyl)amino]-1,4-dihydrochromenol[4,3-c]pyrazole-3-carboxamide], the IC50 is not below 100 µM.

Still in this experiment, the particulars now being: Table 4; read-out: IKK2 Resin IC50.
For `NC(=O)c1nn(-c2ccc(F)cc2)c2c1COc1ccc(NC(=O)c3cccnc3Cl)cc1-2` [Example 47, 8-{[(2-chloropyridin-3-yl)carbonyl]amino}-1-(4-fluorophenyl)-1,4-dihydrochromenol[4,3-c]pyrazole-3-carboxamide], the concentration for half-maximal inhibition (IC50) is not above 1 µM.

For `NC(=O)c1nn(-c2cccc(F)c2)c2c1COc1ccc(NC(=O)c3cccnc3Cl)cc1-2` [Example 48, 8-{[(2-chloropyridin-3-yl)carbonyl]amino}-1-(3-fluorophenyl)-1,4-dihydrochromenol[4,3-c]pyrazole-3-carboxamide], the IC50 was not above 1 µM.

For the molecule `NC(=O)c1nn(-c2ccc(F)cc2)c2c1COc1ccc(NC(=O)c3ccncc3Cl)cc1-2` [Example 53, 8-[(3-chloroisonicotinoyl)amino]-1-(4-fluorophenyl)-1,4-dihydrochromeno[4,3-c]pyrazole-3-carboxamide], the concentration for half-maximal inhibition (IC50) was less than 1 µM.

Staying with this experiment, now noted: Table 5; read-out: IKK2 Resin IC50.
With `CS(=O)(=O)c1ccc(-n2nc(C(N)=O)c3c2-c2cc(NC(=O)c4ccccc4Cl)ccc2OC3)cc1` [Example 54, 8-[(2-chlorobenzoyl)amino]-1-[4-(methylsulfonyl)phenyl]-1,4-dihydrochromeno[4,3-c]pyrazole-3-carboxamide], the half-maximal inhibitory concentration (IC50) is not above 1 µM.

As to `C[S+]([O-])c1ccc(-n2nc(C(N)=O)c3c2-c2cc(NC(=O)c4ccccc4Cl)ccc2OC3)cc1` (stereo not shown) [Example 55, 8-[(2-chlorobenzoyl)amino]-1-[4-(methylsulfinyl)phenyl]-1,4-dihydrochromeno[4,3-c]pyrazole-3-carboxamide], the IC50 is not below 1 µM.

Regarding `CSc1ccc(-n2nc(C(N)=O)c3c2-c2cc(NC(=O)c4ccccc4Cl)ccc2OC3)cc1` [Example 57], the IC50 is not below 10 µM.
